The results in this text go back to a flash point compilation (Sun et al. 2020).

Test in data set [1]: not given
The source holds these as a separate data set.

Test in data set [2]: not given
The source holds these as a separate data set.

Test in data set [3]: not given
This is another data set of the same source.

As to `CCCCCCCCCCCl` [1-Chlorodecane], the flash point was 83.1 °C.

`CCCCCCCCCCCCCl` [1-Chlorododecane] showed a flash point of 104.6 °C.

For `CCCCCCCCCCCCCCCCCCl` [1-Chloroheptadecane], the flash point was 145.2 °C.

Molecule `CCCCCCCCCCCCCCCCCCCl` [1-Chlorooctadecane] returned a flash point of 184.1 °C.

`CCCCCCCCCCCCCCCl` [1-Chlorotetradecane] returned a flash point of 130.1 °C.

For the molecule `C=[C](OCC)[Sn]([CH2]CCC)([CH2]CCC)[CH2]CCC` [1-ETHOXYVINYLTRI-n-BUTYLTIN], in data set [1], the flash point amounted to 113.00 °C.

Regarding `CC(C)(C)C(C)(C)Cl` [2-Chloro-2,3,3-trimethylbutane], the flash point stood at 24.4 °C.

In turn, `CC(C)C(C)(C)Cl` [2-Chloro-2,3-dimethylbutane] returned a flash point of 15.0 °C.

The molecule `CC(C)CC(C)(C)Cl` [2-Chloro-2,4-dimethylpentane] registered a flash point of 29.8 °C.

`CC(C)CC(C)Cl` (stereo not given) [2-Chloro-4-methylpentane] returned a flash point of 21 °C.

In the case of `CC(C)CCC(C)Cl` (stereo not given) [2-Chloro-5-methylhexane], the flash point came out at 35.2 °C.

The molecule `CCCCCCCCCCC(C)Cl` (stereo not given) [2-Chlorododecane] returned a flash point of 99.6 °C.

`CCCCCC(C)Cl` (stereo not given) [2-Chloroheptane] came in with a flash point of 39.2 °C.

`CCC[CH2][Sn]([CH2]CCC)([CH2]CCC)[c]1cccs1` [2-THIENYLTRI-n-BUTYLTIN] had a flash point in data set [1] of 106.00 °C.

As for `CCC(Cl)C(C)C` (stereo not given) [3-Chloro-2-methylpentane], the flash point was found to be 21 °C.

On to `CCCCC(Cl)(CC)CC` [3-Chloro-3-ethylheptane], for which the flash point worked out at 60.0 °C.

The molecule `CCCC(C)(Cl)CC` (stereo not given) [3-Chloro-3-methylhexane] showed a flash point of 33.6 °C.

Consider `CCCCCC(C)(Cl)CC` (stereo not given) [3-Chloro-3-methyloctane], for which the flash point was determined as 60.0 °C.

`CCCCCC(Cl)CC` (stereo not given) [3-Chlorooctane] yielded a flash point of 52.6 °C.

Regarding `CCC(Cl)CC` [3-Chloropentane], the flash point is 10 °C.

For `CCCC(Cl)CCC` [4-Chloroheptane], the flash point is 39.2 °C.

Regarding `CCCCCCCC(Cl)CCCC` (stereo not given) [5-Chlorododecane], the flash point is 99.5 °C.

In the case of `CCC(C)(Cl)CCCC(C)C` (stereo not given) [6-Chloro-2,6-dimethyloctane], the flash point turned out to be 69 °C.

With `C=C[CH2][Sn]([CH2]CCC)([CH2]CCC)[CH2]CCC` [ALLYLTRI-n-BUTYLTIN], in data set [1], the flash point was 103.00 °C.

As for `C=C[CH2][Ge]([CH3])([CH3])[CH3]` [ALLYLTRIMETHYLGERMANE], the flash point in data set [2] came to 1.00 °C.

Consider `CC(C)[O-].CC(C)[O-].CCOC(=O)CC(C)=O.[Al+2]` [ALUMINUM DIISOPROPOXIDE ETHYLACETOACETATE], for which, in data set [3], the flash point came out at 50.00 °C.

`CCCC[O-].CCCC[O-].CCCC[O-].[Sb+3]` [ANTIMONY(III) n-BUTOXIDE] yielded a flash point in data set [3] of 68.00 °C.

For `[CH3][Ge]([CH3])([CH2]Cl)[CH2]Cl` [BIS(CHLOROMETHYL)DIMETHYLGERMANE], the flash point in data set [2] stood at 51.00 °C.

With `C[Si](C)(C)[N]([Sn][N]([Si](C)(C)C)[Si](C)(C)C)[Si](C)(C)C` [BIS[BIS(TRIMETHYLSILYL)AMINO]TIN(II)], the flash point in data set [1] stood at 56.00 °C.

Take `[CH3][Sn]([CH3])([CH3])[CH2]Cl` [CHLOROMETHYLTRIMETHYLTIN]: the flash point in data set [1] is 39.00 °C.

`CCC[CH2][Ge]([Cl])([Cl])[CH2]CCC` [DI-n-BUTYLDICHLOROGERMANE] came in with a flash point in data set [2] of 107.00 °C.

`CCC[CH2][Sn]([Cl])([Cl])[CH2]CCC` [DI-n-BUTYLDICHLOROTIN] returned a flash point in data set [1] of 168.00 °C.

In data set [3], `C1CCC(PC2CCCCC2)CC1` [DICYCLOHEXYLPHOSPHINE] yielded a flash point of 110.00 °C.

`[CH3][Al]([CH3])[Cl]` [DIMETHYLALUMINUM CHLORIDE] yielded a flash point in data set [3] of -18.00 °C.

In data set [1], `CCC[CH2][Sn]([CH2]CCC)([CH2]CCC)[N](C)C` [DIMETHYLAMINOTRI-n-BUTYLTIN] came in with a flash point of 115.00 °C.

Consider `CC(C)[O][Al]([CH3])[CH3]` [DIMETHYLISOPROPOXYALUMINUM], for which the flash point in data set [3] came out at 5.00 °C.

`CCCCCCC[CH2][Sn]([Cl])([Cl])[CH2]CCCCCCC` [DIOCTYLDICHLOROTIN] showed a flash point in data set [1] of 204.00 °C.

Consider `[Cl][Ge]([Cl])([c]1ccccc1)[c]1ccccc1` [DIPHENYLDICHLOROGERMANE], for which, in data set [2], the flash point was determined as 160.00 °C.

As for `C=[CH][Sn]([Cl])([Cl])[CH]=C` [DIVINYLDICHLOROTIN], the flash point in data set [1] is 204.00 °C.

As for `CCCCN(CCCC)C(=S)[S-].CCCCN(CCCC)C(=S)[S-].[Ni+2]` [NICKEL DI-n-BUTYLDITHIOCARBAMATE], in data set [3], the flash point is 260.00 °C.

`CCCC[O-].CCCC[O-].CCCC[O-].CCCC[O-].CCCC[O-].[Nb+5]` [NIOBIUM(V) n-BUTOXIDE] displayed a flash point in data set [3] of 90.00 °C.

`CCC[CH2][Sn]([C]#Cc1ccccc1)([CH2]CCC)[CH2]CCC` [PHENYLETHYNYLTRI-n-BUTYLTIN]: the flash point in data set [1] worked out at 113.00 °C.

As for `CCC[CH2][Sn]([CH2]CCC)([CH2]CCC)[S]c1ccccc1` [PHENYLTHIOTRI-n-BUTYLTIN], the flash point in data set [1] was 104.00 °C.

For `CC(C)(C)CCCCCC(=O)[O-].[Ag+]` [SILVER NEODECANOATE], the flash point in data set [3] was 102.00 °C.

For the molecule `CCCC[O-].CCCC[O-].CCCC[O-].CCCC[O-].CCCC[O-].[Ta+5]` [TANTALUM(V) n-BUTOXIDE], the flash point in data set [3] stood at 66.00 °C.

For the molecule `C=C[CH2][Sn]([CH2]C=C)([CH2]C=C)[CH2]C=C` [TETRAALLYLTIN], in data set [1], the flash point was 75.00 °C.

Regarding `CCCCCCCCCCCCCC[P+](CCCCCC)(CCCCCC)CCCCCC.[Cl-]` [TETRADECYL(TRIHEXYL)PHOSPHONIUM CHLORIDE], the flash point in data set [3] stood at 118.00 °C.

In the case of `C[CH2][Sn]([CH2]C)([CH2]C)[CH2]C` [TETRAETHYLTIN], the flash point in data set [1] was 53.00 °C.

For the molecule `CC[N](CC)[Sn]([N](CC)CC)([N](CC)CC)[N](CC)CC` [TETRAKIS(DIETHYLAMINO)TIN], in data set [1], the flash point worked out at 39.00 °C.

Molecule `C=[CH][Sn]([CH]=C)([CH]=C)[CH]=C` [TETRAVINYLTIN] yielded a flash point in data set [1] of 40.00 °C.

As for `CC(C)[O-].CC(C)[O-].CC(C)[O-].[Cl-].[Ti+4]` [TITANIUM CHLORIDE TRIISOPROPOXIDE], the flash point in data set [3] is 22.00 °C.

On to `CC(C)[O-].CC(C)[O-].CC(C)[O-].CC(C)[O-].[Ti+4]` [TITANIUM ISOPROPOXIDE], for which, in data set [3], the flash point was 25.00 °C.

Turning to `CC[N-]CC.CC[N-]CC.CC[N-]CC.CC[N-]CC.[Ti+4]` [TITANIUM TETRAKIS(DIETHYLAMIDE)], in data set [3], the flash point is 37.00 °C.

`CC[N-]C.CC[N-]C.CC[N-]C.CC[N-]C.[Ti+4]` [TITANIUM TETRAKIS(ETHYLMETHYLAMIDE)] gave a flash point in data set [3] of 10.00 °C.

The molecule `CCC[O-].CCC[O-].CCC[O-].CCC[O-].[Ti+4]` [TITANIUM n-PROPOXIDE] came in with a flash point in data set [3] of 45.00 °C.

Take `CCC[CH2][Sn]([CH2]CCC)([CH2]CCC)[O]C` [TRI-n-BUTYLMETHOXYTIN]: the flash point in data set [1] was found to be 98.00 °C.

As for `[CH3][Ga]([CH3])[CH3]` [TRIMETHYLGALLIUM], the flash point in data set [3] is -1.00 °C.

Molecule `[Cl][Sn]([c]1ccccc1)([c]1ccccc1)[c]1ccccc1` [TRIPHENYLCHLOROTIN] yielded a flash point in data set [1] of 70.00 °C.

Regarding `c1ccc(P(c2ccccc2)c2ccccc2)cc1` [TRIPHENYLPHOSPHINE], the flash point in data set [3] was 182.00 °C.

On to `C[N](C)[Ga]([N](C)C)[N](C)C` [TRIS(DIMETHYLAMINO)GALLIUM], for which the flash point in data set [3] is 56.00 °C.
